Target: GPX4
Type: biochemical
Settings: covalent; without GCTR

IC50: 12.4 µM
SMILES: COC(=O)c1ccc([C@H]2c3[nH]c4ccccc4c3C[C@H](C(=O)OC)N2C(=O)CCl)cc1 [RSL3]
